This is an account of results in patent US9346761B2, “Arginine methyltransferase inhibitors and uses thereof” (Epizyme, Inc., priority 2013, dated 2016).

Assay [1] has as its target T1, Full-length human PRMT1 isoform 1 (Homo sapiens, UniProt Q99873).
T1 construct: GST-tagged PRMT1; made in house; host or cells: High Five insect cells (baculovirus, pFastBacI)
Put plainly: PRMT1 biochemical assay (3H-SAM Flashplate, peptide substrate). The gist of the method: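 GST-tagged full-length PRMT1 from baculovirus-infected cells, preincubated 30 min at room temperature with compound in 20 mM Bicine pH 7.6, TCEP, BSG, Tween 20. Reaction started with 3H-SAM plus biotinylated peptide, stopped with 300 uM unlabelled SAM. Streptavidin Flashplate capture and scintillation counting; % inhibition curve-fitted for IC50.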

Another assay concerns the target T2, Human CARM1 (PRMT4) (Homo sapiens, UniProt Q86X55).
T2 construct: Flag-CARM1-His was eluted with 200 ug/ml FLAG peptide in buffer A; made in house; host or cells: HEK 293F cells (BacMam virus, pFastBacMam)
T2 sequence (Q86X55 with tags, fused parts or gaps isoform Q86X55-1): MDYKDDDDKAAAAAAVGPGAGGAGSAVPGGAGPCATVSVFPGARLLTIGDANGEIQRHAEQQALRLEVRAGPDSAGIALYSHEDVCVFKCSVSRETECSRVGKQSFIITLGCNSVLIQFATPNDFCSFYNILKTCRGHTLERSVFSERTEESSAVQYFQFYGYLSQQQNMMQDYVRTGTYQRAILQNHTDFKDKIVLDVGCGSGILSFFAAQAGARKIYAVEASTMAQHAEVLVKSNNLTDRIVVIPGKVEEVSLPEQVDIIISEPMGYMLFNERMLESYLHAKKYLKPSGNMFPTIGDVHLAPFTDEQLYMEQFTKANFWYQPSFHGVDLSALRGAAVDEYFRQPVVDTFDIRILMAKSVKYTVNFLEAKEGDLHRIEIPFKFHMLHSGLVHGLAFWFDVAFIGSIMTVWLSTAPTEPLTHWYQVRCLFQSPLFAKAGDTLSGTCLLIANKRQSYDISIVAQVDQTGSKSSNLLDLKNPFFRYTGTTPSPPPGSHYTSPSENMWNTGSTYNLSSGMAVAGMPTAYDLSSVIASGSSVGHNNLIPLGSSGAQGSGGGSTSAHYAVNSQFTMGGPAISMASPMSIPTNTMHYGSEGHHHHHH
Briefly: CARM1 biochemical assay (3H-SAM Flashplate, peptide substrate). An excerpt:
General Materials. S-adenosylmethionine (SAM), S-adenosylhomocysteine (SAH), bicine, Tween20, dimethylsulfoxide (DMSO), bovine skin gelatin (BSG), sodium butyrate and Tris(2-carboxyethyl)phosphine hydrochloride solution (TCEP) were purchased from Sigma-Aldrich at the highest level of purity possible. ^3H-SAM was purchase from American Radiolabeled Chemicals with a specific activity of 80 Ci/mmol. 384-well streptavidin Flashplates were purchased from PerkinElmer.
Substrates. Peptide representative of human histone H3 residues 16-30 was synthesized with an N-terminal linker-affinity tag motif and a C-terminal amide cap by 21st Century Biochemicals.
Protein Expression. Recombinant baculovirus were generated according to Bac-to-Bac kit instructions (Life Technologies). […] Infections were carried out at 37° C. for 48 hours, harvested by centrifugation, and stored at −80° C. for purification.
Protein Purification. […] Column was washed with 500 mM NaCl in buffer A and Flag-CARM1-His was eluted with 200 ug/ml FLAG peptide in buffer A. Pooled fractions were dialyzed in 20 mM Tris, 150 mM NaCl, 5% glycerol and 1 mM DTT, pH 7.8.
General Procedure for CARM1 Enzyme Assays on Peptide Substrates. The assays were all performed in a buffer consisting of 20 mM Bicine (pH=7.6), 1 mM TCEP, 0.005% BSG, and 0.002% Tween 20, prepared on the day of use. […] DMSO (1 ul) was added to Columns 11, 12, 23, 24, rows A-H for the maximum signal control and 1 ul of SAH, a known product and inhibitor of CARM1, was added to columns 11, 12, 23, 24, rows I-P for the minimum signal control. A cocktail (40 ul) containing the CARM1 enzyme was added by Multidrop Combi (Thermo-Fisher). The compounds were allowed to incubate with CARM1 for 30 min at room temperature, then a cocktail (10 ul) containing ^3H-SAM and peptide was added to initiate the reaction (final volume=51 ul). […] The assays were stopped by the addition of non-radiolabeled SAM (10 ul) to a final concentration of 300 uM, which dilutes the ^3H-SAM to a level where its incorporation into the peptide substrate is no longer detectable. 50 ul of the reaction in the 384-well polypropylene plate was then transferred to a 384-well Flashplate and the biotinylated peptides were allowed to bind to the streptavidin surface for at least 1 hour before being washed once with 0.1% Tween20 in a Biotek ELx405 plate washer. The plates were then read in a PerkinElmer TopCount plate reader to measure the quantity of ^3H-labeled peptide bound to the Flashplate surface, measured as disintegrations per minute (dpm) or alternatively, referred to as counts per minute (cpm).
Where dpm=disintegrations per minute, cmpd=signal in assay well, and min and max are the respective minimum and maximum signal controls.
Where top and bottom are the normally allowed to float, but may be fixed at 100 or 0 respectively in a 3-parameter fit. The Hill Coefficient normally allowed to float but may also be fixed at 1 in a 3-parameter fit. Y is the % inhibition and X is the compound concentration.

A value given as a limit tells only on which side of the number the result lay.

T1 sequence (Q99873 with tags, fused parts or gaps): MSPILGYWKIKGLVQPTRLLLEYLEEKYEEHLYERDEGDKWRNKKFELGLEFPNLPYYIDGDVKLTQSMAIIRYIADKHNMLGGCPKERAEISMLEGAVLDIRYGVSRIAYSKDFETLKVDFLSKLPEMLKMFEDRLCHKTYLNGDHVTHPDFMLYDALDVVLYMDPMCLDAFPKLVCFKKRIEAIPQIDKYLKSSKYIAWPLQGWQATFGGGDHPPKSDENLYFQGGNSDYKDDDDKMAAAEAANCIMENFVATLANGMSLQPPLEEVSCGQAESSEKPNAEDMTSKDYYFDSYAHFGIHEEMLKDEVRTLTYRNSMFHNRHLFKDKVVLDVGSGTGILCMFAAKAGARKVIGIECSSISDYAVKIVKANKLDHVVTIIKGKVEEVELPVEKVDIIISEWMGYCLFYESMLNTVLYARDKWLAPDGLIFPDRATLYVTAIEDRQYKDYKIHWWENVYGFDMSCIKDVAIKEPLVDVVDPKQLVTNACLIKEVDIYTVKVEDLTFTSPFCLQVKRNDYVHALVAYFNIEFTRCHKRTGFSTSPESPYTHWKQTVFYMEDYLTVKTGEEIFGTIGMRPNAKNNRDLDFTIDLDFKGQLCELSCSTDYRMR

With `Cc1cccc(-c2n[nH]cc2CN(C)CCN)c1` [Compound 131], the values for the IC50 (in assay [1]; against Human CARM1 (PRMT4)) were less than 100 nM and 1010 to 3000 nM, respectively.
For `CN(CCN)Cc1c[nH]nc1-c1ccc(Cl)cc1F` [Compound 132] the same measures were less than 100 nM and 1010 to 3000 nM.
For `Cc1cc(Cl)ccc1-c1n[nH]cc1CN(C)CCN` [Compound 133] the same measures were less than 100 nM and 3010 to 10000 nM.
Consider `COc1ccc(-c2n[nH]cc2CN(C)CCN)cc1F` [Compound 134], for which the IC50 is less than 100 nM in assay [1] and 1010 to 3000 nM against Human CARM1 (PRMT4).
For `CN(CCN)Cc1c[nH]nc1-c1ccc(C(F)(F)F)cc1Cl` [Compound 135] the same measures were less than 100 nM and more than 10000 nM.
`CCNC(=O)c1ccc(-c2n[nH]cc2CN(C)CCN)cc1` [Compound 136]: the IC50 in assay [1] was less than 100 nM; against Human CARM1 (PRMT4), 1010 to 3000 nM.
Consider `CN(CCN)Cc1c[nH]nc1-c1cc(Cl)cc(Cl)c1` [Compound 137], for which the IC50 in assay [1] is less than 100 nM; against Human CARM1 (PRMT4), 101 to 1000 nM.
For `CN(CCN)Cc1n[nH]cc1-c1ccc(OC(F)F)cc1` [Compound 138] the same measures were less than 100 nM and 1010 to 3000 nM.
For `CN(CCN1CCCC1)Cc1c[nH]nc1-c1ccc(C#N)cc1` [Compound 139] the same measures were more than 10000 nM and more than 10000 nM.
On to `CN(CCN)Cc1c[nH]nc1-c1ccccc1C#N` [Compound 140], for which the IC50 in assay [1] is 101 to 1000 nM; at Human CARM1 (PRMT4), more than 10000 nM.
For `CN(CCN)Cc1c[nH]nc1-c1ccc(C(F)(F)F)c(F)c1` [Compound 141] the same measures were less than 100 nM and 1010 to 3000 nM.
For `COc1cc(-c2n[nH]cc2CN(C)CCN)ccc1F` [Compound 142] the same measures were less than 100 nM and 1010 to 3000 nM.
In the same order, the values of `CCN(CC)C(=O)c1ccc(-c2n[nH]cc2CN(C)CCN)cc1` [Compound 143] are 101 to 1000 nM and 3010 to 10000 nM.
Consider `CC(C)Oc1ccc(-c2c[nH]nc2CN(C)CCN)cc1F` [Compound 144], for which the IC50 in assay [1] is less than 100 nM; on Human CARM1 (PRMT4), 3010 to 10000 nM.
For `CN(CCN)Cc1n[nH]cc1-c1ccc(C2CCOCC2)cc1` [Compound 145] the same measures were less than 100 nM and 3010 to 10000 nM.
Regarding `COc1ccc(-c2n[nH]cc2CN(C)CCN)c(Cl)c1` [Compound 146], the figures for the IC50 (in assay [1]; at Human CARM1 (PRMT4)) were less than 100 nM and 3010 to 10000 nM, respectively.
For `CN(CCN)Cc1c[nH]nc1-c1cc(C#N)ccc1Cl` [Compound 147] the same measures were 1010 to 3000 nM and more than 10000 nM.
For `CN(CCN)Cc1c[nH]nc1-c1ccc(C(F)(F)F)cc1F` [Compound 148] the same measures were 101 to 1000 nM and more than 10000 nM.
In the same order, the values of `CN(CCN)Cc1c[nH]nc1-c1cccc(N(C)C)c1` [Compound 149] are less than 100 nM and 1010 to 3000 nM.
Turning to `CCOC(=O)c1cccc(-c2n[nH]cc2CN(C)CCN)c1` [Compound 150], the results for the IC50 (in assay [1]; against Human CARM1 (PRMT4)) were less than 100 nM and 1010 to 3000 nM, respectively.
For `COc1cc(F)ccc1-c1n[nH]cc1CN(C)CCN` [Compound 151] the same measures were 101 to 1000 nM and 3010 to 10000 nM.
Regarding `Cc1cc(F)ccc1-c1n[nH]cc1CN(C)CCN` [Compound 152], the IC50 was less than 100 nM in assay [1] and 3010 to 10000 nM against Human CARM1 (PRMT4).
In the same order, the values of `COc1ccc(-c2n[nH]cc2CN(C)CCN)cc1` [Compound 153] are less than 100 nM and 1010 to 3000 nM.
For `COc1ccc(-c2n[nH]cc2CN(C)CCN)c(C(F)(F)F)c1` [Compound 154] the same measures were 101 to 1000 nM and more than 10000 nM.
In the same order, the values of `COc1ccc(-c2n[nH]cc2CN(C)CCN)c(C)c1` [Compound 155] are less than 100 nM and more than 10000 nM.
`CN(CCN)Cc1c[nH]nc1-c1cc(Cl)ccc1F` [Compound 156]: the IC50 in assay [1] lay within 101 to 1000 nM; at Human CARM1 (PRMT4), 3010 to 10000 nM.
In the same order, the values of `COc1ccc(Cl)cc1-c1n[nH]cc1CN(C)CCN` [Compound 157] are 1010 to 3000 nM and more than 10000 nM.
Regarding `Cc1ccc(C#N)cc1-c1n[nH]cc1CN(C)CCN` [Compound 158], the results for the IC50 (in assay [1]; against Human CARM1 (PRMT4)) were 1010 to 3000 nM and more than 10000 nM, respectively.
For `Cc1ccc(F)cc1-c1n[nH]cc1CN(C)CCN` [Compound 159] the same measures were less than 100 nM and more than 10000 nM.
For `COc1ccc(F)cc1-c1n[nH]cc1CN(C)CCN` [Compound 160] the same measures were 101 to 1000 nM and more than 10000 nM.
In the same order, the values of `Cc1ccccc1-c1n[nH]cc1CN(C)CCN` [Compound 161] are 101 to 1000 nM and 3010 to 10000 nM.
With `Cc1ccc(-c2n[nH]cc2CN(C)CCN)cc1` [Compound 162], the IC50 is less than 100 nM in assay [1] and 101 to 1000 nM at Human CARM1 (PRMT4).
